Laboratory results from ChEMBL document CHEMBL3885881, “DrugMatrix”.

Species: Rattus norvegicus
Test: DrugMatrix - Regimen: Daily Repeat
Format: toxicity, organism-based, Sprague-Dawley
Design: regimen Daily Repeat, gender Male, age 6-8 weeks
Settings: in vivo, po, route oral GAVAGE, […]; for ABSOLUTE BASOPHIL / ABSOLUTE EOSINOPHIL / ABSOLUTE LYMPHOCYTE / ABSOLUTE MONOCYTE / ABSOLUTE SEGMENTED NEUTROPHIL / BASOPHIL / EOSINOPHIL / ERYTHROCYTE COUNT / HEMATOCRIT / HEMOGLOBIN / LEUKOCYTE COUNT / LYMPHOCYTE / MEAN CORPUSCULAR HEMOGLOBIN / MEAN CORPUSCULAR HEMOGLOBIN CONCENTRATION / MEAN CORPUSCULAR VOLUME / MONOCYTE / NEUTROPHIL / NUCLEATED RED BLOOD CELLS / PLATELET COUNT: tissue Blood; for ALANINE AMINOTRANSFERASE / ALBUMIN / ALKALINE PHOSPHATASE / ASPARTATE AMINOTRANSFERASE / BLOOD UREA NITROGEN / CARBON DIOXIDE / CHLORIDE / CHOLESTEROL / CREATINE PHOSPHOKINASE / CREATININE / GLUCOSE / LACTATE DEHYDROGENASE / LIPASE / PHOSPHORUS / POTASSIUM / SODIUM / TOTAL BILIRUBIN / TOTAL PROTEIN / URIC ACID: tissue Plasma
[1] = 50 mg/kg, 120 h, dose level Low, time 5 day
[2] = 175 mg/kg, 72 h, dose level High, time 3 day
[3] = 175 mg/kg, 120 h, dose level High, time 5 day

Oc1ncnc2[nH]ncc12 [ALLOPURINOL]
ABSOLUTE BASOPHIL [1]: 0 CELLS/uL
ABSOLUTE EOSINOPHIL [1]: 49 CELLS/uL
ABSOLUTE LYMPHOCYTE [1]: 17802 CELLS/uL
ABSOLUTE MONOCYTE [1]: 49 CELLS/uL
ABSOLUTE SEGMENTED NEUTROPHIL [1]: 1133.33 CELLS/uL
BASOPHIL [1]: 0%
EOSINOPHIL [1]: 0.33%
ERYTHROCYTE COUNT [1]: 5.63 x10E6/uL
HEMATOCRIT [1]: 35.03%
HEMOGLOBIN [1]: 13.73 G/DL
LEUKOCYTE COUNT [1]: 19.03 x10E3/uL
LYMPHOCYTE [1]: 93%
MEAN CORPUSCULAR HEMOGLOBIN [1]: 24.47 pg
MEAN CORPUSCULAR HEMOGLOBIN CONCENTRATION [1]: 39.27 G/DL
MEAN CORPUSCULAR VOLUME [1]: 62.33 fL
MONOCYTE [1]: 0.33%
NEUTROPHIL [1]: 6.33%
NUCLEATED RED BLOOD CELLS [1]: 0 /100WBC
PLATELET COUNT [1]: 1236.33 x10E3/uL
ALANINE AMINOTRANSFERASE [1]: 56.33 u/L
ALBUMIN [1]: 3.97 G/DL
ALKALINE PHOSPHATASE [1]: 308 u/L
ASPARTATE AMINOTRANSFERASE [1]: 104 u/L
BLOOD UREA NITROGEN [1]: 20 mg/dL
CARBON DIOXIDE [1]: 27 mmol/L
CHLORIDE [1]: 100 MEQ/L
CHOLESTEROL [1]: 65.33 mg/dL
CREATINE PHOSPHOKINASE [1]: 626 u/L
CREATININE [1]: 0.41 mg/dL
GLUCOSE [1]: 169.33 mg/dL
LACTATE DEHYDROGENASE [1]: 263.33 u/L
LIPASE [1]: 10 u/L
PHOSPHORUS [1]: 9.7 mg/dL
POTASSIUM [1]: 5.66 MEQ/L
SODIUM [1]: 141.17 MEQ/L
TOTAL BILIRUBIN [1]: 0.2 mg/dL
TOTAL PROTEIN [1]: 5.6 G/DL
URIC ACID [1]: 0.83 mg/dL
ABSOLUTE BASOPHIL [2]: 0 CELLS/uL
ABSOLUTE EOSINOPHIL [2]: 0 CELLS/uL
ABSOLUTE LYMPHOCYTE [2]: 8294 CELLS/uL
ABSOLUTE MONOCYTE [2]: 350.5 CELLS/uL
ABSOLUTE SEGMENTED NEUTROPHIL [2]: 4205.5 CELLS/uL
BASOPHIL [2]: 0%
EOSINOPHIL [2]: 0%
ERYTHROCYTE COUNT [2]: 5.27 x10E6/uL
HEMATOCRIT [2]: 32.2%
HEMOGLOBIN [2]: 12.95 G/DL
LEUKOCYTE COUNT [2]: 12.85 x10E3/uL
LYMPHOCYTE [2]: 64%
MEAN CORPUSCULAR HEMOGLOBIN [2]: 24.55 pg
MEAN CORPUSCULAR HEMOGLOBIN CONCENTRATION [2]: 40.3 G/DL
MEAN CORPUSCULAR VOLUME [2]: 61.1 fL
MONOCYTE [2]: 3%
NEUTROPHIL [2]: 33%
NUCLEATED RED BLOOD CELLS [2]: 0 /100WBC
PLATELET COUNT [2]: 1127 x10E3/uL
ALANINE AMINOTRANSFERASE [2]: 101 u/L
ALBUMIN [2]: 3.9 G/DL
ALKALINE PHOSPHATASE [2]: 397.5 u/L
ASPARTATE AMINOTRANSFERASE [2]: 153.5 u/L
BLOOD UREA NITROGEN [2]: 113.5 mg/dL
CARBON DIOXIDE [2]: 24.5 mmol/L
CHLORIDE [2]: 93 MEQ/L
CHOLESTEROL [2]: 99 mg/dL
CREATINE PHOSPHOKINASE [2]: 283.5 u/L
CREATININE [2]: 3.31 mg/dL
GLUCOSE [2]: 154.5 mg/dL
LACTATE DEHYDROGENASE [2]: 217.5 u/L
LIPASE [2]: 12 u/L
PHOSPHORUS [2]: 16.65 mg/dL
POTASSIUM [2]: 6.46 MEQ/L
SODIUM [2]: 141.2 MEQ/L
TOTAL BILIRUBIN [2]: 0.35 mg/dL
TOTAL PROTEIN [2]: 6.55 G/DL
URIC ACID [2]: 0.2 mg/dL
ABSOLUTE BASOPHIL [3]: 0 CELLS/uL
ABSOLUTE EOSINOPHIL [3]: 81.33 CELLS/uL
ABSOLUTE LYMPHOCYTE [3]: 15570.33 CELLS/uL
ABSOLUTE MONOCYTE [3]: 599.67 CELLS/uL
ABSOLUTE SEGMENTED NEUTROPHIL [3]: 6148.67 CELLS/uL
BASOPHIL [3]: 0%
EOSINOPHIL [3]: 0.33%
ERYTHROCYTE COUNT [3]: 5.7 x10E6/uL
HEMATOCRIT [3]: 35.5%
HEMOGLOBIN [3]: 13.77 G/DL
LEUKOCYTE COUNT [3]: 22.4 x10E3/uL
LYMPHOCYTE [3]: 69.33%
MEAN CORPUSCULAR HEMOGLOBIN [3]: 24.17 pg
MEAN CORPUSCULAR HEMOGLOBIN CONCENTRATION [3]: 38.8 G/DL
MEAN CORPUSCULAR VOLUME [3]: 62.27 fL
MONOCYTE [3]: 2.67%
NEUTROPHIL [3]: 27.67%
NUCLEATED RED BLOOD CELLS [3]: 0 /100WBC
PLATELET COUNT [3]: 1373 x10E3/uL
ALANINE AMINOTRANSFERASE [3]: 78.67 u/L
ALBUMIN [3]: 3.73 G/DL
ALKALINE PHOSPHATASE [3]: 409 u/L
ASPARTATE AMINOTRANSFERASE [3]: 102 u/L
BLOOD UREA NITROGEN [3]: 46.33 mg/dL
CARBON DIOXIDE [3]: 26.33 mmol/L
CHLORIDE [3]: 105.33 MEQ/L
CHOLESTEROL [3]: 83.67 mg/dL
CREATINE PHOSPHOKINASE [3]: 242.33 u/L
CREATININE [3]: 1.36 mg/dL
GLUCOSE [3]: 145 mg/dL
LACTATE DEHYDROGENASE [3]: 182.33 u/L
LIPASE [3]: 10.33 u/L
PHOSPHORUS [3]: 7.7 mg/dL
POTASSIUM [3]: 6.87 MEQ/L
SODIUM [3]: 149 MEQ/L
TOTAL BILIRUBIN [3]: 0.2 mg/dL
TOTAL PROTEIN [3]: 5.87 G/DL
URIC ACID [3]: 0.2 mg/dL
